Measured values from ChEMBL document CHEMBL6134867, “Design and Synthesis of FR-β Targeting Chimeric Molecules for Reprogramming Tumor-Associated Macrophages Using 6-Substituted Pyrrolo[2,3-d]pyrimidines as Targeting Ligands” (J Med Chem, 2025).
Calls of active or inactive are those of the source. The calls are words filed in the database; no cut-off is given here.

Legend:
[1] = Toxicity against BALB/c mouse xenografted with mouse 4T1 cells assessed as effect on body weight at 1 mg/kg, iv qd for 14 days and measured every day; assay type: organism-based; conditions: in vivo, 336 h, time 14 day
BMDM [2] = test: Induction of macrophage repolarization in FR-beta expressing IL-4 differentiated M2 phenotype mouse BMDM cells assessed as reprogramming to M1 phenotype by measuring downregulation of Arg1 mRNA expression at 10 nM incubated for 24 hrs by RT-qPCR analysis; assay type: functional, cell-based
[3] = Toxicity against BALB/c mouse xenografted with mouse 4T1 cells assessed as pathological changes in kidney at 1 mg/kg, iv qd for 14 days by Hematoxylin-Eosin staining based analysis; assay type: organism-based; conditions: in vivo, 336 h, time 14 day
Mus musculus [4] = test: In vivo transition from anti-inflammatory to pro-inflammatory phenotypes in BALB/c mouse xenografted with mouse 4T1 cells assessed as upregulation in proportion of CD8+ cells at 1 mg/kg, iv qd for 14 days by flow cytometry; assay type: functional, organism-based; conditions: time 14.0 day
[5] = Cytotoxicity against mouse BMDM cells assessed as reduction in cell viability incubated for 24 hrs by CCK-8 assay; assay type: toxicity, cell-based
BMDM [6] = test: Induction of macrophage repolarization in FR-beta expressing IL-4 differentiated M2 phenotype mouse BMDM cells assessed as reprogramming to M1 phenotype by measuring upregulation of MyD88 expression at 10 nM incubated for 24 hrs by western blot analysis; assay type: functional, cell-based
BMDM [7] = test: Induction of macrophage repolarization in FR-beta expressing IL-4 differentiated M2 phenotype mouse BMDM cells assessed as reprogramming to M1 phenotype by measuring upregulation of iNOS mRNA expression at 10 nM incubated for 24 hrs by RT-qPCR analysis; assay type: functional, cell-based
BMDM [8] = test: Induction of macrophage repolarization in FR-beta expressing IL-4 differentiated M2 phenotype mouse BMDM cells assessed as reprogramming to M1 phenotype by measuring downregulation of Arg1 expression at 10 nM incubated for 24 hrs by western blot analysis; assay type: functional, cell-based
BMDM [9] = test: Induction of macrophage repolarization in FR-beta expressing IL-4 differentiated M2 phenotype mouse BMDM cells assessed as reprogramming to M1 phenotype by measuring downregulation of IL-10 level at 10 nM incubated for 24 hrs by ELISA; assay type: functional, cell-based
[10] = Toxicity against BALB/c mouse xenografted with mouse 4T1 cells assessed as heightened inflammatory response in lung at 1 mg/kg, iv qd for 14 days by Hematoxylin-Eosin staining based analysis; assay type: organism-based; conditions: in vivo, 336 h, time 14 day
[11] = Prodrug release assessed as IMDQ formation in presence of 10 mM GSH and measured after 1 to 8 hrs by HPLC analysis; assay type: ADME; conditions: time 1-8 hrs
[12] = Toxicity against BALB/c mouse xenografted with mouse 4T1 cells assessed as pathological changes in heart at 1 mg/kg, iv qd for 14 days by Hematoxylin-Eosin staining based analysis; assay type: organism-based; conditions: in vivo, 336 h, time 14 day
BMDM [13] = test: Induction of macrophage repolarization in FR-beta expressing IL-4 differentiated M2 phenotype mouse BMDM cells assessed as reprogramming to M1 phenotype by measuring upregulation of iNOS expression at 10 nM incubated for 24 hrs by western blot analysis; assay type: functional, cell-based
4T1 [14] = test: Cytotoxicity against mouse 4T1 cells assessed as reduction in cell viability incubated for 24 hrs by CCK-8 assay; assay type: toxicity, cell-based; conditions: 4t1, 24 h
[15] = Stability of the compound in mouse plasma at 5 uM and measured at 37 degC and for up to 12 hrs by HPLC analysis; assay type: ADME, cell-free; conditions: for remaining at 12 h, 5 µM: read-out: Stability
BMDM [16] = test: Induction of macrophage repolarization in FR-beta expressing IL-4 differentiated M2 phenotype mouse BMDM cells assessed as reprogramming to M1 phenotype by measuring upregulation of IL-6 mRNA expression at 10 nM incubated for 24 hrs by RT-qPCR analysis; assay type: functional, cell-based
BMDM [17] = test: Induction of macrophage repolarization in FR-beta expressing IL-4 differentiated M2 phenotype mouse BMDM cells assessed as reprogramming to M1 phenotype by measuring downregulation of CD206 expression at 10 nM incubated for 24 hrs by western blot analysis; assay type: functional, cell-based
[18] = Toxicity against BALB/c mouse xenografted with mouse 4T1 cells assessed as pathological changes in spleen at 1 mg/kg, iv qd for 14 days by Hematoxylin-Eosin staining based analysis; assay type: organism-based; conditions: in vivo, 336 h, time 14 day
BMDM [19] = test: Induction of macrophage repolarization in FR-beta expressing IL-4 differentiated M2 phenotype mouse BMDM cells assessed as reprogramming to M1 phenotype by measuring upregulation of IL-6 level at 10 nM incubated for 24 hrs by ELISA; assay type: functional, cell-based
BMDM [20] = test: Induction of macrophage repolarization in FR-beta expressing IL-4 differentiated M2 phenotype mouse BMDM cells assessed as reprogramming to M1 phenotype by measuring TNF-alpha level at 10 nM incubated for 24 hrs by ELISA; assay type: functional, cell-based
Mus musculus [21] = test: In vivo transition from anti-inflammatory to pro-inflammatory phenotypes in BALB/c mouse xenografted with mouse 4T1 cells assessed as decrease in proportion of Ly6C+ and Ly6G+ cells within CD45+ population at 1 mg/kg, iv qd for 14 days by flow cytometry; assay type: functional, organism-based; conditions: time 14.0 day
[22] = Stability of the compound in PBS measured at 4 degC and for 15 days; assay type: physicochemical; conditions: time 15 day, read-out: Stability
[23] = Toxicity against BALB/c mouse xenografted with mouse 4T1 cells assessed as pathological changes in liver at 1 mg/kg, iv qd for 14 days by Hematoxylin-Eosin staining based analysis; assay type: organism-based; conditions: in vivo, 336 h, time 14 day
BMDM [24] = test: Induction of macrophage repolarization in FR-beta expressing IL-4 differentiated M2 phenotype mouse BMDM cells assessed as reprogramming to M1 phenotype by measuring downregulation of CD206 mRNA expression at 10 nM incubated for 24 hrs by RT-qPCR analysis; assay type: functional, cell-based
HUVEC = test: Cytotoxicity against human HUVEC cells assessed as reduction in cell viability incubated for 24 hrs by CCK-8 assay; assay type: toxicity, cell-based
BMDM [25] = test: Induction of macrophage repolarization in FR-beta expressing IL-4 differentiated M2 phenotype mouse BMDM cells assessed as reprogramming to M1 phenotype by measuring TNF-alpha mRNA expression at 10 nM incubated for 24 hrs by RT-qPCR analysis; assay type: functional, cell-based
Mus musculus [26] = test: In vivo transition from anti-inflammatory to pro-inflammatory phenotypes in BALB/c mouse xenografted with mouse 4T1 cells assessed as CD4+ cells population at 1 mg/kg, iv qd for 14 days by flow cytometry; assay type: functional, organism-based; conditions: time 14.0 day
4T1 [27] = test: Antitumor activity against mouse 4T1 cells xenografted in BALB/c mouse assessed as inhibition of tumor growth at 1 mg/kg, iv qd for 14 days and measured every day by digital caliper analysis; assay type: functional, organism-based; conditions: time 14.0 day
BMDM [28] = test: Induction of macrophage repolarization in FR-beta expressing IL-4 differentiated M2 phenotype mouse BMDM cells assessed as reprogramming to M1 phenotype by measuring downregulation of IL-10 mRNA expression at 10 nM incubated for 24 hrs by RT-qPCR analysis; assay type: functional, cell-based
BMDM [29] = test: Induction of macrophage repolarization in FR-beta expressing IL-4 differentiated M2 phenotype mouse BMDM cells assessed as reprogramming to M1 phenotype by measuring upregulation of TLR7 expression at 10 nM incubated for 24 hrs by western blot analysis; assay type: functional, cell-based

Compound	Activity [1]	Activity [3]	Activity (Mus musculus [4])	Activity [5]	Activity [10]	Drug metabolism [11]	Activity [12]	Activity (BMDM [13])	Activity (4T1 [14])	Activity (BMDM [17])	Activity [18]	Activity (Mus musculus [21])	remaining at 360 h [22] [%]	Activity [23]	Activity (HUVEC)	Activity (Mus musculus [26])	Activity (4T1 [27])	other results
CCCCc1nc2c(N)nc3ccccc3c2n1Cc1ccc(CNC(=O)OCCSSC[C@H](NC(=O)CC[C@H](NC(=O)CNC(=O)Cc2cc3c(=O)[nH]c(N)nc3[nH]2)C(=O)O)C(=O)O)cc1	Non-toxic	Non-toxic	Active	Non-toxic	Non-toxic	metabolite_detected	Non-toxic	Active	Non-toxic	Active	Non-toxic	Active	> 95	Non-toxic	Non-toxic	inactive	Active	Activity (BMDM [2]): Active; Activity (BMDM [6]): Active; Activity (BMDM [7]): Active; Activity (BMDM [8]): Active; Activity (BMDM [9]): Active; remaining at 12 h, 5 µM [15]: 95%; Activity (BMDM [16]): Active; Activity (BMDM [19]): Active; Activity (BMDM [20]): inactive; Activity (BMDM [24]): Active; Activity (BMDM [25]): inactive; Activity (BMDM [28]): Active
CCCCc1nc2c(N)nc3ccccc3c2n1Cc1ccc(CNC(=O)OCCSSC[C@H](NC(=O)CC[C@H](NC(=O)c2ccc(NCc3cnc4nc(N)[nH]c(=O)c4n3)cc2)C(=O)O)C(=O)O)cc1	Non-toxic	Non-toxic	Active	Non-toxic	Non-toxic	metabolite_detected	Non-toxic	Active; Less Effective Than Fgt-2,4 Observed	Non-toxic	Active; Less Effective Than Fgt-2,4 Observed	Non-toxic	Active	< 95	Non-toxic	Non-toxic	inactive	Active	Activity (BMDM [2]): Active; Less Effective Than Fgt-2,4 Observed; Activity (BMDM [7]): Active; Less Effective Than Fgt-2,4 Observed; Activity (BMDM [8]): Active; Less Effective Than Fgt-2,4 Observed; Stability ([15]; 12 h, 5 µM): Unstable; Activity (BMDM [24]): Active; Less Effective Than Fgt-2,4 Observed
Nc1nc2[nH]c(CCCCc3ccc(C(=O)N[C@@H](CCC(=O)N[C@@H](CS)C(=O)O)C(=O)O)cc3)cc2c(=O)[nH]1								inactive	Non-toxic	inactive								Activity (BMDM [29]): inactive
Nc1nc2[nH]c(CC(=O)NCC(=O)N[C@@H](CCC(=O)N[C@@H](CS)C(=O)O)C(=O)O)cc2c(=O)[nH]1									Non-toxic									
Nc1nc2[nH]c(CCCCc3ccc(C(=O)N[C@@H](CCC(=O)N[C@@H](CS)C(=O)O)C(=O)O)s3)cc2c(=O)[nH]1									Non-toxic									
Nc1nc(O)c2nc(CNc3ccc(C(=O)N[C@@H](CCC(=O)N[C@@H](CS)C(=O)O)C(=O)O)cc3)cnc2n1									Non-toxic									
CCCCc1nc2c(N)nc3ccccc3c2n1Cc1ccc(CNC(=O)OCCSSC[C@H](NC(=O)CC[C@H](NC(=O)c2ccc(CCCCc3cc4c(=O)[nH]c(N)nc4[nH]3)s2)C(=O)O)C(=O)O)cc1	Non-toxic	Non-toxic	Active	Non-toxic	Non-toxic	metabolite_detected	Non-toxic		Non-toxic		Non-toxic	Active	> 95	Non-toxic	Non-toxic	inactive	Active	remaining at 12 h, 5 µM [15]: 95%
